Target: hTREM2 (Homo sapiens, UniProt Q9NZC2)
Assay: Phospho-Syk AlphaScreen/AlphaLISA assay in TREM2 and DAP12 overexpressing HEK293 cells (Example A1)
Assay type: cell-based
Parameters: expressed in transfected cells
Details: HEK293 cells; for EC50: read-out: hTREM2 EC50
Procedure, shortened: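 Single-cell-cloned HEK293 stably overexpressing TREM2 and DAP12, plated 20,000 cells/well for 20 h, then exposed to compounds (1% DMSO) 45 min at room temperature. Lysates probed for phospho-Syk by AlphaLISA sandwich (anti-pSyk, biotinylated anti-Syk); signal normalized to percent of control (100 nM anti-TREM2 antibody vs isotype) and fitted by 4-parameter logistic.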

Chain of hTREM2 (Q9NZC2 19-230): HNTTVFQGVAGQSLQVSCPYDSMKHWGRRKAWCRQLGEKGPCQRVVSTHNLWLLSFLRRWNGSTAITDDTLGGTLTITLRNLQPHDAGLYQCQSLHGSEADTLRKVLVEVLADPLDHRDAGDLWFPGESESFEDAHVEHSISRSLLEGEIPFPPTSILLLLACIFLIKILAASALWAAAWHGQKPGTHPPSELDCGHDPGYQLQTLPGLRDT
Chain of hTREM2 (O43914 22-113 partner): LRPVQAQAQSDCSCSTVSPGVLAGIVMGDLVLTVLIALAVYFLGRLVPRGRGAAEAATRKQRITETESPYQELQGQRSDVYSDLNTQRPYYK

Row | Molecule | Emax | EC50
1 | COc1cccc([C@H]2CN(c3cc4nc(C)n(C)c(=O)c4c(-c4ccc(Cl)cc4F)n3)CCO2)c1 (single isomer, unassigned) [Example 80] | ++++ (Emax>300) | 50 to 500 nM
2 | Cc1nc2cc(N3CCO[C@@H](c4cnn(C)c4)C3)nc(-c3ccc(C(F)(F)F)cc3F)c2c(=O)n1C [Example 13, 5-(2-fluoro-4-(trifluoromethyl)phenyl)-2,3-dimethyl-7-((2S)-2-(1-methyl-1H-pyrazol-4-yl)-4-morpholinyl)pyrido[4,3-d]pyrimidin-4(3H)-one] | ++++ (Emax>300) | 50 to 500 nM
3 | Cc1nn(C)cc1[C@H]1CN(c2cc3nc(C)n(C)c(=O)c3c(-c3ccc(Cl)cc3F)n2)CCO1 [Example 263, (S)-5-(4-chloro-2-fluorophenyl)-7-(2-(1,3-dimethyl-1H-pyrazol-4-yl)morpholino)-2,3-dimethylpyrido[4,3-d]pyrimidin-4(3H)-one] | +++ (Emax>200 and ≤300) | 50 to 500 nM
4 | CCCn1c(C)nc2cc(N3CCO[C@H](c4cnn(C)c4)C3)nc(-c3ncc(Cl)cc3F)c2c1=O [Example 215, (R)-5-(5-chloro-3-fluoropyridin-2-yl)-2-methyl-7-(2-(1-methyl-1H-pyrazol-4-yl)morpholino)-3-propylpyrido[4,3-d]pyrimidin-4(3H)-one] | ++++ (Emax>300) | 3000 to 100000 nM
5 | Cc1nc2cc(N3CCO[C@@H](c4cnn(C)c4)C3)nc(-c3ccc(Cl)cc3F)c2c(=O)n1CC(F)(F)F [Example 19, 5-(4-chloro-2-fluorophenyl)-2-methyl-7-((2S)-2-(1-methyl-1H-pyrazol-4-yl)-4-morpholinyl)-3-(2,2,2-trifluoroethyl)pyrido[4,3-d]pyrimidin-4(3H)-one] | ++++ (Emax>300) | < 50 nM
6 | CCCn1c(C)nc2cc(N3Cc4cnn(C)c4C3)nc(-c3ccc(Cl)cc3F)c2c1=O [Example 181, 5-(4-chloro-2-fluorophenyl)-2-methyl-7-(1-methyl-4,6-dihydropyrrolo[3,4-c]pyrazol-5(1H)-yl)-3-propylpyrido[4,3-d]pyrimidin-4(3H)-one] | ++++ (Emax>300) | 3000 to 100000 nM
7 | Cc1nc([C@H]2CN(c3cc4nc(C)n(C)c(=O)c4c(-c4ccc(Cl)cc4F)n3)CCO2)no1 (single isomer, unassigned) [Example 56] | +++ (Emax>200 and ≤300) | 3000 to 100000 nM
8 | Cc1cc([C@@H]2CN(c3cc4nc(C)n(C)c(=O)c4c(-c4ccc(Cl)cc4F)n3)CCO2)ccn1 [Example 62, 5-(4-chloro-2-fluorophenyl)-2,3-dimethyl-7-((2R)-2-(2-methyl-4-pyridinyl)-4-morpholinyl)pyrido[4,3-d]pyrimidin-4(3H)-one] | +++ (Emax>200 and ≤300) | 50 to 500 nM
9 | CCc1nnc(C2CN(c3cc4nc(C)n(C)c(=O)c4c(-c4ccc(Cl)cc4F)n3)CCO2)o1 (stereo not shown) [Example 70, 5-(4-chloro-2-fluorophenyl)-7-(2-(5-ethyl-1,3,4-oxadiazol-2-yl)-4-morpholinyl)-2,3-dimethylpyrido[4,3-d]pyrimidin-4(3H)-one] | ++++ (Emax>300) | 50 to 500 nM
10 | Cc1nc2cc(N3C[C@@H](C)O[C@H](C4CC4)C3)nc(-c3ccc(Cl)cc3F)c2c(=O)n1C (single isomer, unassigned) [Example 36] | +++ (Emax>200 and ≤300) | 3000 to 100000 nM
11 | Cc1nc2cc(N3CCc4cnccc4C3)nc(-c3ccc(Cl)cc3F)c2c(=O)n1C [Example 101, 5-(4-chloro-2-fluorophenyl)-7-(3,4-dihydro-2,6-naphthyridin-2(1H)-yl)-2,3-dimethylpyrido[4,3-d]pyrimidin-4(3H)-one] | +++ (Emax>200 and ≤300) | 500 to 3000 nM
12 | Cc1nc2cc(N3CCc4ccnc(Cl)c4C3)nc(-c3ccc(Cl)cc3F)c2c(=O)n1C [Example 115, 7-(8-chloro-3,4-dihydro-2,7-naphthyridin-2(1H)-yl)-5-(4-chloro-2-fluorophenyl)-2,3-dimethylpyrido[4,3-d]pyrimidin-4(3H)-one] | +++ (Emax>200 and ≤300) | 50 to 500 nM
13 | COc1cc([C@@H]2C[C@@H](c3cc4nc(C)n(C)c(=O)c4c(-c4ccc(Cl)cc4F)n3)CCO2)ccn1 (single isomer, unassigned) [Example 175] | +++ (Emax>200 and ≤300) | 50 to 500 nM
14 | Cc1nc2cc(N3CC[C@H](N(C)C)C3)nc(-c3ccc(Cl)cc3F)c2c(=O)n1C [Example 255, (S)-5-(4-chloro-2-fluorophenyl)-7-(3-(dimethylamino)pyrrolidin-1-yl)-2,3-dimethylpyrido[4,3-d]pyrimidin-4(3H)-one] | +++ (Emax>200 and ≤300) | 3000 to 100000 nM
15 | Cc1nc2cc(N3CCCC(N(C)C)C3)nc(-c3ccc(Cl)cc3F)c2c(=O)n1C (stereo not shown) [Example 109, 5-(4-chloro-2-fluoro-phenyl)-7-(3-(dimethylamino)-1-piperidinyl)-2,3-dimethylpyrido[4,3-d]pyrimidin-4(3H)-one] | ++++ (Emax>300) | 500 to 3000 nM
16 | ethyl (2S,4S)-4-(5-(4-chloro-2-fluorophenyl)-2,3-dimethyl-4-oxo-3,4-dihydropyrido[4,3-d]pyrimidin-7-yl)tetrahydro-2H-pyran-2-carboxylate and ethyl (2R,4R)-4-(5-(4-chloro-2-fluorophenyl)-2,3-dimethyl-4-oxo-3,4-dihydropyrido[4,3-d]pyrimidin-7-yl)tetrahydro-2H-pyran-2-carboxylate [Example 168] | +++ (Emax>200 and ≤300) | 3000 to 100000 nM
17 | Cc1nc2cc(N3CCO[C@@H](c4cnn(C)c4)C3)nc(C3CCCCC3)c2c(=O)n1C [Example 159, 5-cyclohexyl-2,3-dimethyl-7-((2S)-2-(1-methyl-1H-pyrazol-4-yl)-4-morpholinyl)pyrido[4,3-d]pyrimidin-4(3H)-one] | +++ (Emax>200 and ≤300) | 500 to 3000 nM
18 | Cc1nc2cc(N3CCO[C@@H](c4cn[nH]c4)C3)nc(-c3ccc(Cl)cc3F)c2c(=O)n1C [Example 22, 5-(4-chloro-2-fluorophenyl)-2,3-dimethyl-7-((2S)-2-(1H-pyrazol-4-yl)-4-morpholinyl)pyrido[4,3-d]pyrimidin-4(3H)-one] | ++++ (Emax>300) | < 50 nM
19 | COc1ccc([C@@H]2CN(c3cc4nc(C)n(C)c(=O)c4c(-c4ccc(Cl)cc4F)n3)CCO2)cc1 (single isomer, unassigned) [Example 79] | +++ (Emax>200 and ≤300) | 500 to 3000 nM
20 | Cn1cc([C@H]2CN(c3cc4nc(C5CC5)n(C)c(=O)c4c(-c4ccc(Cl)cc4F)n3)CCO2)cn1 [Example 142, 5-(4-chloro-2-fluorophenyl)-2-cyclopropyl-3-methyl-7-((2S)-2-(1-methyl-1H-pyrazol-4-yl)-4-morpholinyl)pyrido[4,3-d]pyrimidin-4(3H)-one] | ++++ (Emax>300) | 50 to 500 nM
21 | Cc1nc2cc(N3CCO[C@H](c4cnn(C)c4)C3)nc(-c3ccccc3F)c2c(=O)n1C [Example 218, (R)-5-(2-fluorophenyl)-2,3-dimethyl-7-(2-(1-methyl-1H-pyrazol-4-yl)morpholino)pyrido[4,3-d]pyrimidin-4(3H)-one] | +++ (Emax>200 and ≤300) | 3000 to 100000 nM
22 | Cc1nc2cc(N3CCO[C@@H](c4cnn(C5CCC5)c4)C3)nc(-c3ccc(Cl)cc3F)c2c(=O)n1C [Example 124, 5-(4-chloro-2-fluorophenyl)-7-((2S)-2-(1-cyclobutyl-1H-pyrazol-4-yl)-4-morpholinyl)-2,3-dimethylpyrido[4,3-d]pyrimidin-4(3H)-one] | ++++ (Emax>300) | < 50 nM
23 | CCCn1c(C)nc2cc(N3CCO[C@@H](c4ccccc4)C3)nc(-c3ccc(Cl)cc3F)c2c1=O [Example 157, 5-(4-chloro-2-fluorophenyl)-2-methyl-7-((2S)-2-phenyl-4-morpholinyl)-3-propylpyrido[4,3-d]pyrimidin-4(3H)-one] | ++++ (Emax>300) | 500 to 3000 nM
24 | Cc1nc2cc(N3C[C@H](c4cnn(C)c4)OC[C@H]3C)nc(-c3ccc(Cl)cc3F)c2c(=O)n1C (single isomer, unassigned) [Example 25] | +++ (Emax>200 and ≤300) | 500 to 3000 nM
25 | Cc1nc2cc(N3CC[C@H](n4cccn4)C3)nc(-c3ccc(Cl)cc3F)c2c(=O)n1C [Example 203, (S)-7-(3-(1H-pyrazol-1-yl)pyrrolidin-1-yl)-5-(4-chloro-2-fluorophenyl)-2,3-dimethylpyrido[4,3-d]pyrimidin-4(3H)-one] | + (Emax>45 and ≤100) | 3000 to 100000 nM
26 | Cc1c([C@H]2CN(c3cc4nc(C)n(C)c(=O)c4c(-c4ccc(Cl)cc4F)n3)CCO2)cnn1C [Example 262, (S)-5-(4-chloro-2-fluorophenyl)-7-(2-(1,5-dimethyl-1H-pyrazol-4-yl)morpholino)-2,3-dimethylpyrido[4,3-d]pyrimidin-4(3H)-one] | +++ (Emax>200 and ≤300) | 500 to 3000 nM
27 | Cc1nc2cc(N3CCO[C@@H](c4cnn(C)c4)C3)nc(-c3cc(F)c(F)cc3F)c2c(=O)n1C [Example 10, 2,3-dimethyl-7-((2S)-2-(1-methyl-1H-pyrazol-4-yl)-4-morpholinyl)-5-(2,4,5-trifluorophenyl)pyrido[4,3-d]pyrimidin-4(3H)-one] | ++++ (Emax>300) | 50 to 500 nM
28 | COc1ncnc2c1CN(c1cc3nc(C)n(C)c(=O)c3c(-c3ccc(Cl)cc3F)n1)CC2 [Example 116, 5′-(4-chloro-2-fluorophenyl)-4-methoxy-2′,3′-dimethyl-7,8-dihydro-5H-[6,7′-bipyrido[4,3-d]pyrimidin]-4′(3′H)-one] | ++ (Emax>100 and ≤200) | 50 to 500 nM
29 | Cc1nc2cc(N3CCO[C@@H](c4cnn(C)c4)C3)cc(-c3ccc(Cl)cc3F)c2c(=O)n1C [Example 3, 5-(4-chloro-2-fluorophenyl)-2,3-dimethyl-7-((2S)-2-(1-methyl-1H-pyrazol-4-yl)-4-morpholinyl)-4(3H)-quinazolinone] | +++ (Emax>200 and ≤300) | < 50 nM

Source: patent publication US20250388574A1, “HETEROCYCLIC COMPOUNDS AS TRIGGERING RECEPTOR EXPRESSED ON MYELOID CELLS 2 AGONISTS AND METHODS OF USE” (AMGEN INC., priority 2020, published 2025)
